Assay: Repeat dose tissue distribution study (QWBA, LSC of blood and plasma), 15 daily doses
Format: in vivo, Sprague-Dawley rats
Method: Three male rats were administered [^14C]PPI-1011 at 100 mg/kg (100 μCi/kg) once daily for 15 days. One rat was sacrificed at each of the following time points after the administration of the day 15 dose: 24, 48, and 96 h. Terminal blood was collected by cardiac puncture directly into tubes with K2EDTA, an aliquot was stored at 4°C until LSC was performed for radioactivity, while the remaining blood was processed to plasma and stored at −20°C until LSC. Following blood collection, the carcasses were frozen in a cold bath with hexanes and dry ice for at least 8 min and then dried and stored at −70°C for at least 12 h. The carcasses were transferred to a −20°C freezer for at least 12 h before embedding.
QWBA was used to determine radioactivity concentrations in the caecum (contents and mucosa), large intestine (contents and mucosa), small intestine (contents and mucosa), stomach (contents and mucosa), brain, choroid plexus, spinal cord, bone, skin, adrenal gland, pineal body, pituitary gland, thyroid gland, liver, kidney (cortex, medulla and whole kidney), urinary bladder (contents and wall), brown fat, white fat, eye (lens, uveal tract and whole eye), epididymis, prostate gland, testis, ovary, uterus, lung, exorbital lachrymal gland, Harderian gland, pancreas, salivary gland, skeletal muscle, myocardium, cardiac blood, bone marrow, lymph node, spleen, and thymus. As well, LSC was used to determine the total radioactivity in the whole blood and plasma.
The whole-body cryosectioning technique described by ([Ullberg, 1977]) was the basis for embedding and cryosectioning the rats assigned to this study. Each frozen carcass was shaved, and then the limbs and tail were removed prior to embedding. Chilled (4°C) 3% CMC (low viscosity) was utilized to provide a firm support of reinforced ice around each rat and for a secure attachment to the microtome stage. Upon thorough freezing of the embedding medium surrounding each rat, the frozen CMC block was removed from the freezing bath and four 3/8 inch holes were drilled into the block. One cryosection quality control standard (CQCS) was prepared with a known amount of radioactivity and at least 1 ml aliquots were added to each of the four drilled holes. CQCS data were utilized to evaluate the overall performance of the QWBA assay.
Each frozen rat was sagittally trimmed (50–100 μm) at −20°C until exposure of a few target tissues employing a Leica Cryomacrocut heavy-duty microtome (Leica Microsystems Inc.,). Disposable stainless steel Feather type H45L knives (Feather Safety Razor Co., Ltd.) were utilized for trimming and sectioning each frozen rat. Several thinner sections (50 μm) were discarded prior to obtaining multiple 50 μm sections at various cryosectioning levels for QWBA analysis. Upon the collection of at least 60 target tissues in multiple cryosectioning levels, the cryosections were kept in the Cryomacrocut cryochamber for a minimum of 18 h for dehydration depending upon the number of cryosections within the cryochamber. After dehydration was complete, the cryosections were transferred to ambient temperature for processing. Mounted whole-body cryosections and a set of 15 standards were sandwiched between a standard phosphor screen and an exposure cassette. All cryosections were exposed to the phosphor screen for 4-days in a cabinet protected with lead prior to scanning using a Typhoon PhosphorImager (Cytiva). MCID™ Analysis software (InterFocus Ltd.) was utilized to generate a calibration curve of the STD nominal concentrations (nCi/g) versus PhosphorImager response (counts/μm^2 minus background) by weighted (1/x) linear regression analysis ([Potchoiba et al., 1995]; [Potchoiba et al., 1998]). The linear regression curve was then utilized to determine the concentration (nCi/g) of total radioactivity in whole-body tissues and blood. Radioactivity concentrations were expressed as μg Eq/g based on the specific activity of the compound in the final dose formulations. […]

[1] = 24 hr post 15 daily oral 100 mg/kg
[2] = 48 hr post 15 daily oral 100 mg/kg

CC/C=C\C/C=C\C/C=C\C/C=C\C/C=C\C/C=C\CCC(=O)O[C@H](CO[14CH2]CCCCCCCCCCCCCCC)COC(=O)CCCCC1CCSS1 (stereo partly shown) [[^14C]PPI-1011]
Mean percentage radioactivity (normalized by tissue) at 96 h relative to the 24-h timepoint (15 daily doses): 75%
Radioactivity in urine within the urinary bladder (15 daily doses): no detection of radioactivity
Time of highest blood concentration (15 daily doses): 24 HPD
Time of highest levels, adrenal gland (15 daily doses): 48 HPD
Time of highest levels, cerebrum (15 daily doses): 96 HPD
Time of highest levels, medulla oblongata (15 daily doses): 96 HPD
Time of highest levels, nasal turbinates (15 daily doses): 48 HPD
Time of highest levels, spinal cord (15 daily doses): 96 HPD
Time of highest peak concentration, bladder wall (15 daily doses): 48 HPD
Time of highest peak concentration, brown adipose (15 daily doses): 24 HPD
Time of highest peak concentration, cecum (15 daily doses): 24 HPD
Time of highest peak concentration, esophagus (15 daily doses): 24 HPD
Time of highest peak concentration, gastric mucosa (15 daily doses): 24 HPD
Time of highest peak concentration, large intestines (15 daily doses): 24 HPD
Time of highest peak concentration, ocular lens (15 daily doses): 96 HPD
Time of highest peak concentration, prostate (15 daily doses): 96 HPD
Time of highest peak concentration, seminal vesicles (15 daily doses): 24 HPD
Time of highest peak concentration, small intestines (15 daily doses): 24 HPD
Time of highest peak concentration, stomach (15 daily doses): 24 HPD
Time of highest peak concentration, subcutaneous adipose (15 daily doses): 48 HPD
Time of highest peak concentration, testis (15 daily doses): 24 HPD
Time of highest peak concentration, uveal tract (15 daily doses): 24 HPD
Time of highest peak concentration, visceral adipose (15 daily doses): 48 HPD
Time of highest peak concentration, vitreous body (15 daily doses): 24 HPD
Time of highest peak concentration, whole eye (15 daily doses): 24 HPD
Blood:plasma concentration ratio (24 HPD, 15 daily doses): 2.31
Blood:plasma concentration ratio (48 HPD, 15 daily doses): 2.86
Blood:plasma concentration ratio (96 HPD, 15 daily doses): 4.23
Radioactivity concentration, Adipose - Brown [1]: 2211 μg equivalents/g
Radioactivity concentration, Adipose - Brown (Vessel Wall) [1]: 1423 μg equivalents/g
Radioactivity concentration, Adipose - Subcutaneous [1]: 1316 μg equivalents/g
Radioactivity concentration, Adipose - Visceral [1]: 1402 μg equivalents/g
Radioactivity concentration, Adrenal Gland [1]: 1830 μg equivalents/g
Radioactivity concentration, Bladder Wall [1]: 102 μg equivalents/g
Radioactivity concentration, Blood - QWBA [1]: 55.0 μg equivalents/g
Radioactivity concentration, Bone Marrow [1]: 160 μg equivalents/g
Radioactivity concentration, Bone Surface [1]: 11.6 μg equivalents/g
Radioactivity concentration, Cecum [1]: 300 μg equivalents/g
Radioactivity concentration, Cerebellum [1]: 57.8 μg equivalents/g
Radioactivity concentration, Cerebrum [1]: 45.7 μg equivalents/g
Radioactivity concentration, Choroid Plexus [1]: 186 μg equivalents/g
Radioactivity concentration, Colliculus [1]: 68.3 μg equivalents/g
Radioactivity concentration, Diaphragm [1]: 204 μg equivalents/g
Radioactivity concentration, Esophagus [1]: 161 μg equivalents/g
Radioactivity concentration, Exorbital Lacrimal Gland [1]: 98.0 μg equivalents/g
Radioactivity concentration, Gastric Mucosa [1]: 415 μg equivalents/g
Radioactivity concentration, Harderian Gland [1]: 113 μg equivalents/g
Radioactivity concentration, Intra-Orbital Lacrimal Gland [1]: 100 μg equivalents/g
Radioactivity concentration, Kidney [1]: 304 μg equivalents/g
Radioactivity concentration, Large Intestines [1]: 255 μg equivalents/g
Radioactivity concentration, Liver [1]: 412 μg equivalents/g
Radioactivity concentration, Lung [1]: 217 μg equivalents/g
Radioactivity concentration, Lymph Node [1]: 347 μg equivalents/g
Radioactivity concentration, Medulla Oblongata [1]: 51.0 μg equivalents/g
Radioactivity concentration, Muscle [1]: 115 μg equivalents/g
Radioactivity concentration, Myocardium [1]: 292 μg equivalents/g
Radioactivity concentration, Nasal Turbinates [1]: 180 μg equivalents/g
Radioactivity concentration, Ocular - Lens [1]: 5.82 μg equivalents/g
Radioactivity concentration, Ocular - Uveal Tract [1]: 105 μg equivalents/g
Radioactivity concentration, Ocular - Vitreous Body [1]: 2.55 μg equivalents/g
Radioactivity concentration, Ocular - Whole Eye [1]: 22.7 μg equivalents/g
Radioactivity concentration, Olfactory Bulb [1]: 47.8 μg equivalents/g
Radioactivity concentration, Pancreas [1]: 355 μg equivalents/g
Radioactivity concentration, Parotid Gland [1]: 296 μg equivalents/g
Radioactivity concentration, Pineal Gland [1]: 230 μg equivalents/g
Radioactivity concentration, Pituitary Gland [1]: 266 μg equivalents/g
Radioactivity concentration, Prostate [1]: 74.6 μg equivalents/g
Radioactivity concentration, Renal Cortex [1]: 323 μg equivalents/g
Radioactivity concentration, Renal Medulla [1]: 238 μg equivalents/g
Radioactivity concentration, Salivary Gland [1]: 308 μg equivalents/g
Radioactivity concentration, Seminal Vesicles [1]: 63.2 μg equivalents/g
Radioactivity concentration, Skin - Non-Pigmented [1]: 161 μg equivalents/g
Radioactivity concentration, Small Intestines [1]: 420 μg equivalents/g
Radioactivity concentration, Spinal Cord [1]: 46.8 μg equivalents/g
Radioactivity concentration, Spleen [1]: 319 μg equivalents/g
Radioactivity concentration, Stomach [1]: 133 μg equivalents/g
Radioactivity concentration, Testis [1]: 70.3 μg equivalents/g
Radioactivity concentration, Thalamus [1]: 45.4 μg equivalents/g
Radioactivity concentration, Thymus [1]: 153 μg equivalents/g
Radioactivity concentration, Thyroid [1]: 373 μg equivalents/g
Radioactivity concentration, Whole Brain [1]: 48.8 μg equivalents/g
Radioactivity concentration, Adipose - Brown [2]: 1917 μg equivalents/g
Radioactivity concentration, Adipose - Brown (Vessel Wall) [2]: 1017 μg equivalents/g
Radioactivity concentration, Adipose - Subcutaneous [2]: 1498 μg equivalents/g
Radioactivity concentration, Adipose - Visceral [2]: 1500 μg equivalents/g
Radioactivity concentration, Adrenal Gland [2]: 2346 μg equivalents/g
Radioactivity concentration, Bladder Wall [2]: 108 μg equivalents/g
Radioactivity concentration, Blood - QWBA [2]: 34.3 μg equivalents/g
Radioactivity concentration, Bone Marrow [2]: 113 μg equivalents/g
Radioactivity concentration, Bone Surface [2]: 7.66 μg equivalents/g
Radioactivity concentration, Cecum [2]: 95.7 μg equivalents/g
Radioactivity concentration, Cerebellum [2]: 54.9 μg equivalents/g
Radioactivity concentration, Cerebrum [2]: 39.9 μg equivalents/g
Radioactivity concentration, Choroid Plexus [2]: 131 μg equivalents/g

Source: paper PMC9081329, “Pharmacokinetics, Mass Balance, Excretion, and Tissue Distribution of Plasmalogen Precursor PPI-1011” (Frontiers in Cell and Developmental Biology, 2022)
